Source: a melting point compilation (Tetko et al.; mined from patent text by program, amines drawn as free bases though some values may be those of a salt)

| SMILES | melting point [°C] |
| --- | --- |
| COC(=O)c1ccc(C=CC(=O)Nc2cnc3c(C)cc(C)cc3c2-c2ccccc2Cl)cc1 | 225 to 226 |
| CC(C)(C)OC(=O)C=Cc1ccc2c(c1)OCO2 | 82 to 83 |
| CC(C)C(NC(=O)c1ccccn1)C(=O)NC(Cc1ccccc1)C(O)C(O)C(Cc1ccccc1)NC(=O)C(NC(=O)c1ccccn1)C(C)C (stereo unspecified) | 167 to 171 |
| CC(C)(C)CC(C)(C)c1cc(O)c(Sc2ccccc2)c(Sc2nnnn2-c2ccccc2)c1O | 147 |
| Cc1nc2c(n1C)CC(C(=O)N(C)C)CC2=O (stereo unspecified) | 190 to 194 |
| CC(=O)NC1CCC(=O)C(=CN(C)C)C1 (stereo unspecified) | 132 to 133 |
| CCOc1ccccc1C(=O)SSc1ccc([N+](=O)[O-])cc1C(Cl)(Cl)Cl | 79 to 80 |
| N#Cc1cc(C[C@H](N)C(=O)O)ccc1O | > 250 |
| COc1ccc(OC)c(CNc2ccc3nc[nH]c(=O)c3c2)c1 | 203 to 205 |
| CCC1Cc2cc(OC)ccc2C2CCC3(C)C(=O)CC(C)C3C12 (stereo unspecified) | 120 to 122 |
| COC(=O)n1cc(Cl)c(-c2cc(Cl)cc(Cl)c2)n1 | 144 |
| CSc1ncc2cc(CBr)c(=O)n(C3CCCC3)c2n1 | 103 to 105 |
| CC(C)OCC1(C(C)(F)F)c2cc(Cl)ccc2Nc2ncccc21 (stereo unspecified) | 148 to 149 |
| COC1C(NC(=O)C(F)(F)F)CC(O)OC1C (stereo unspecified) | 185 |
| CC(C)n1c(C=O)c(-c2ccc(F)cc2)c(-c2ccc(F)cc2)c1C(=O)OCc1ccccc1 | 94 to 95 |
| CC12CCC3C(=C1CCC2=O)C=CC1=CC(=O)CCC13CO (stereo unspecified) | 264 to 265 |
| CCOC(=O)C1=C(COCc2nnn(CCN)n2)NC(C)=C(C(=O)OC)C1c1ccccc1Cl (stereo unspecified) | 126 to 127 |
| Cc1cccc(N2CCN(CCc3ccc(NC(=O)NCCCCl)cc3)CC2)c1 | 168 |
| Fc1cc2c(Nc3ccc(Cl)c(Cl)c3)ncnc2cn1 | 262 to 264 |
| OCCCCCCC1CCC2C(C=CC3=CCCc4c3n2c2ccncc42)C1 (stereo unspecified) | 101 to 102 |
| COC(=O)c1sc(-c2ccccc2)cc1N=NN(C)C | 92 to 94 |

| SMILES | melting point [°C] |
| --- | --- |
| COC(=O)[C@H](Cc1ccc(NC(=O)c2c(Cl)cccc2Cl)cc1)NC(=O)c1ccc(C(=O)Nc2cccc(O)c2)cc1Cl | 230 to 232 |
| NC(=S)c1ccc(Br)cc1 | 142 to 144 |
| COc1ccc2oc(-c3ccccc3)c(C)c2c1 | 106 to 107 |
| O=C(Nc1ccc(-n2nc(C3CC3)cc2C2CC2)cc1)c1c(F)cccc1F | 158 to 163 |
| CCOC(=O)Cc1nsc2ccc([N+](=O)[O-])cc12 | 91 to 92 |
| C=C(C(=O)c1ccc(OC)c(Cl)c1Cl)C1CCCC1 | 59 to 63 |
| CCOC(=O)c1cnn2c1c(OCC)nc1c(C)nn(C)c12 | 116 to 118 |
| O=C(NCCO)c1cccc(-c2ccc3cnn(-c4ccc(Cl)cc4Cl)c3n2)c1 | 169 to 170 |
| CC(C)(C)OC(=O)COC1CCN(C(=O)CC(=O)Nc2ccc(C(N)=NO)cc2)CC1 | 161 to 163 |
| O=C(NC(=O)C(Cl)CCl)Nc1cccc(Cl)c1Cl (stereo unspecified) | 195 to 196 |
| c1ccc2c(c1)CCCC1C2=NNC1c1ccncc1 (stereo unspecified) | 152 to 157 |
| COc1ccc(C=CC(=O)O)cc1C=O | 223 to 225 |
| Fc1cccc(C(c2ccc3nccnc3c2)n2ccnc2)c1 (stereo unspecified) | 110 |
| CC=Cc1cc(OC)c(OC)cc1Cc1cnc(N)nc1N | 204 to 208 |
| CC(=O)SCC(CC(C)C)C(=O)NCCCCCC(N)=O (stereo unspecified) | 64 to 80 |
| CCCCc1nc2ccccn2c1Cc1ccc(-c2ccccc2C(=O)O)cc1 | 196 |
| COc1ccc(OC)c(CC(=O)c2ccc(C(C)C)c(OS(N)(=O)=O)c2C(C)C)c1 | 150 to 152 |
| CC1(c2cc(Cl)nnc2Cl)CC1(Cl)Cl (stereo unspecified) | 78 to 79 |
| CCOC(=O)/C=C/c1ccc(O)cc1OCc1ccccc1 | 131 to 133 |
| COc1nc(NN)c(C(F)(F)F)cc1Cl | 140 to 142 |
